Measurements published in paper PMC6681393, “Intra-Nasally Administered Oligopeptide Lunasin Acts as a Possible Anti-Psychotic Agent in Mice Models” (Medicina, 2019).
Entries after “also recorded” stand apart in the source; their conditions may differ.

Columns and labels:
[1] = tested on: locomotor activity of ICR mice; assay: Open field locomotor activity, lunasin per se; type: in vivo, male albino ICR mice; conditions: lunasin 0.1 or 1 nmol/mouse i.n. alone; 15-min test; n = 7–8
[2] = tested on: DOI-induced hyperlocomotion in ICR mice; assay: Open field locomotor activity, DOI-induced hyperlocomotion; type: in vivo, male albino ICR mice; conditions: for effect on DOI hyperactivity (words): lunasin 1 nmol/mouse i.n., p = 0.0137; for Locomotion (distance, cm): key: ↑: increase; ↓: decrease; N: normalization; Nc: no changes
brain monoamine levels = assay: Brain monoamines and metabolites, lunasin per se (UHPLC-TOF-MS); type: in vivo, male albino ICR mice; conditions: lunasin i.n. alone; for brain dopamine level, lunasin per se (words): p < 0.01
[3] = tested on: amphetamine-induced hyperlocomotion in ICR mice; assay: Open field locomotor activity, amphetamine-induced hyperlocomotion; type: in vivo, male albino ICR mice; conditions: for Locomotion (distance, cm): 15-min open field; for Locomotion (distance, cm) / effect on amphetamine hyperlocomotion: n = 7–8; for Locomotion (distance, cm): key: ↑: increase; ↓: decrease; N: normalization; Nc: no changes
5-HT2C receptor = assay: [125I]DOI binding displacement, 5-HT2C; design: species or system human; conditions: for inhibition of [125I]DOI specific binding: mean of duplicates (n = 2)
Description: (§1) The binding assay was performed by Eurofins Cerep (France) according to Bryant et al., 1996 [15]. Briefly, the binding of lunasin to 5-HT2A and 5-HT2C receptors was estimated on its ability to displace the specific binding of [^125I]DOI on cell membrane suspensions of HEK-293 cells expressing human recombinant 5-HT2A and 5-HT2C receptors. The radioligand [^125I]DOI has high affinity for 5-HT2A (Kd: 0.3 nM) and 5-HT2C (Kd: 0.9 nM) receptors. Lunasin was tested at concentrations of 1, 10 and 100 µM. The results were expressed as a percent of radioligand specific binding (n = 2).

5-HT2A receptor = assay: [125I]DOI binding displacement, 5-HT2A; design: species or system human; conditions: for inhibition of [125I]DOI specific binding: mean of duplicates (n = 2)
Description: as §1

[4] = tested on: brain monoamine levels, DOI-treated mice; assay: Brain monoamines and metabolites, DOI-treated mice (UHPLC-TOF-MS); type: in vivo, male albino ICR mice; for 5-HIAA (brain level, ng/g): key: ↑: increase; ↓: decrease; N: normalization; Nc: no changes; for 5-HT (brain level, ng/g): key: ↑: increase; ↓: decrease; N: normalization; Nc: no changes
[5] = tested on: apomorphine-induced climbing activity; conditions: direct central administration (intracisternally); cited from earlier work
[6] = tested on: locomotion altered by ketamine; conditions: central (intracisternal) injection; cited from earlier work
[7] = tested on: dopamine D2 receptor subtype; conditions: cited from earlier work
Excerpt: (§2) Thus, lunasin at both doses normalized to control the level of behavioural changes after amphetamine in ...

[8] = tested on: amphetamine-induced hyper-locomotion; conditions: direct central administration (intracisternally); cited from earlier work
Excerpt: as §2

[9] = tested on: dopamine D1 receptor subtype; conditions: cited from earlier work
Excerpt: as §2

[10] = tested on: PCP-induced hyperlocomotion in ICR mice; assay: Open field locomotor activity, phencyclidine-induced hyperlocomotion; type: in vivo, male albino ICR mice; conditions: lunasin 0.1 or 1 nmol/mouse i.n. after PCP 5 mg/kg i.p., n = 7–8
[11] = tested on: brain monoamine levels, amphetamine-treated mice; assay: Brain monoamines and metabolites, amphetamine-treated mice (UHPLC-TOF-MS); type: in vivo, male albino ICR mice; conditions: for amphetamine-altered brain noradrenaline level (words): lunasin 0.1 nmol/mouse i.n.
[12] = lunasin i.n., DOI-treated mice, dose not stated
[13] = lunasin i.n., amphetamine-treated mice, dose not stated
[14] = 1 and 10 µM, HEK-293 cell membranes
[15] = lunasin 0.1 nmol/mouse i.n. + DOI 3 mg/kg i.p., n = 6–8
[16] = lunasin 1 nmol/mouse i.n. + DOI 3 mg/kg i.p., n = 6–8
[17] = lunasin 1 nmol/mouse i.n., p < 0.01
[18] = lunasin 0.1 and 1 nmol/mouse i.n., p < 0.0001
[19] = lunasin 0.1 nmol/mouse i.n. + amphetamine 3 mg/kg i.p., n = 6–8
[20] = lunasin 1 nmol/mouse i.n. + amphetamine 3 mg/kg i.p., n = 6–8

Substance: lunasin
- effect of lunasin per se on locomotion [1]: did not influence mouse activity
- Locomotion (distance, cm) ([2]; lunasin 1 nmol/mouse i.n. 15 min after DOI 3 mg/kg i.p., 15-min open field, n = 7–8): N
- effect on DOI hyperactivity (words) ([2]; n = 7–8): exerted protection against DOI-induced hyper-locomotion
- effect on DOI hyperactivity (words) ([2]; n = 7–8, listed as lunasin): decreased hyperactivity
- hyper-locomotion, summary [2, 12]: fully normalized hyper-locomotion
- brain DOPAC concentration, lunasin per se (brain monoamine levels): Neither lunasin per se nor amphetamine changed the DOPAC concentration
- brain dopamine level, lunasin per se (words) (brain monoamine levels): significantly decreased dopamine level
- brain dopamine level, lunasin per se (words) (brain monoamine levels; listed as lunasin): significantly decreased dopamine levels
- Locomotion (distance, cm) ([3]; lunasin 0.1 nmol/mouse i.n. 15 min after amphetamine 3 mg/kg i.p.): N
- effect on amphetamine hyperlocomotion ([3]; lunasin 0.1 nmol/mouse i.n., p = 0.0031): considerably decreased; also recorded: normalized to control the level of behavioural changes after amphetamine injection
- Locomotion (distance, cm) ([3]; lunasin 1 nmol/mouse i.n. 15 min after amphetamine 3 mg/kg i.p.): N
- effect on amphetamine hyperlocomotion ([3]; lunasin 1 nmol/mouse i.n., p = 0.0018): considerably decreased; also recorded: normalized to control the level of behavioural changes after amphetamine injection
- hyper-locomotion, summary [3, 13]: fully normalized hyper-locomotion
- inhibition of [125I]DOI specific binding (5-HT2C receptor; 1 µM, HEK-293 cell membranes): 4.7%
- inhibition of [125I]DOI specific binding (5-HT2C receptor; 10 µM, HEK-293 cell membranes): 10.3%
- inhibition of [125I]DOI specific binding (5-HT2C receptor; 100 µM, HEK-293 cell membranes): 59.7%
- binding activity (5-HT2C receptor; 100 µM, compared with 5-HT2A): more considerable
- binding activity (5-HT2C receptor; [14]): did not show binding activity
- receptor affinity (5-HT2C receptor; compared with DOI, abstract): low affinity of lunasin (at µM concentrations)
- inhibition of [125I]DOI specific binding (5-HT2A receptor; 1 µM, HEK-293 cell membranes): 1.6%
- inhibition of [125I]DOI specific binding (5-HT2A receptor; 10 µM, HEK-293 cell membranes): 2.6%
- binding activity (5-HT2A receptor; 100 µM): weak binding activity
- inhibition of [125I]DOI specific binding (5-HT2A receptor; 100 µM, HEK-293 cell membranes): 32.5%
- binding activity (5-HT2A receptor; [14]): did not show binding activity
- receptor affinity (5-HT2A receptor; compared with DOI, abstract): low affinity of lunasin (at µM concentrations)
- 5-HIAA (brain level, ng/g) [4, 15]: N
- 5-HT (brain level, ng/g) [4, 15]: N
- NA (brain noradrenaline level, ng/g) [4, 15]: N
- 5-HIAA (brain level, ng/g) [4, 16]: N
- 5-HT (brain level, ng/g) [4, 16]: N
- HVA (brain level, ng/g) [4, 16]: N
- NA (brain noradrenaline level, ng/g) [4, 16]: N
- DOI-altered brain HVA level [4, 17]: normalized the altered levels of HVA
- DOI-altered brain noradrenaline level ([4]; lunasin 0.1 and 1 nmol/mouse i.n. (both tested doses), p < 0.01): reversed amphetamine-induced and DOI-induced (both tested doses) noradrenaline alterations to the control values
- DOI-increased brain 5-HIAA level [4, 18]: reversed the DOI up-regulated levels of serotonin and 5-HIAA almost to the control values; also recorded: fully normalized them to the control values
- DOI-increased brain serotonin level [4, 18]: reversed the DOI up-regulated levels of serotonin and 5-HIAA almost to the control values; also recorded: fully normalized them to the control values
- brain monoamine levels, summary [4, 12]: fully normalized hyper-locomotion and brain monoamine levels
- DOI-increased brain DOPAC level ([4]; lunasin i.n., dose not stated): These altered parameters were normalized by lunasin
- DOI-lowered brain HVA level ([4]; lunasin i.n., dose not stated): These altered parameters were normalized by lunasin
- DOI-lowered brain noradrenaline level ([4]; lunasin i.n., dose not stated): These altered parameters were normalized by lunasin
- apomorphine-induced climbing activity [5]: reduced amphetamine-induced hyper-locomotion and apomorphine-induced climbing activity
- effect on locomotion altered by ketamine [6]: did not influence locomotion altered by ketamine
- dopamine D2 receptor binding [7]: does not bind to the dopamine D2 receptor subtype
- amphetamine-induced hyper-locomotion [8]: reduced amphetamine-induced hyper-locomotion
- dopamine D1 receptor affinity [9]: has an affinity similar to that of dopamine
- effect on PCP hyperlocomotion (words) [10]: Phencyclidine behavioural effects were not influenced
- effect on PCP hyperlocomotion (words) ([10]; listed as lunasin): did not influence the PCP effect; also recorded: we did not find any influence of lunasin on PCP-induced hyperactivity
- 5-HIAA (brain level, ng/g) [11, 19]: N
- DA (brain dopamine level, ng/g) [11, 19]: N
- NA (brain noradrenaline level, ng/g) [11, 19]: N
- amphetamine-altered brain noradrenaline level (words) ([11]; p < 0.01): reversed amphetamine-induced and DOI-induced (both tested doses) noradrenaline alterations to the control values
- amphetamine-altered brain noradrenaline level (words) ([11]; p < 0.01, listed as lunasin): normalized noradrenaline level to control values
- 5-HIAA (brain level, ng/g) [11, 20]: N
- 5-HT (brain level, ng/g) [11, 20]: N
- DA (brain dopamine level, ng/g) [11, 20]: N
- HVA (brain level, ng/g) [11, 20]: N
- amphetamine-altered brain HVA level ([11]; lunasin 1 nmol/mouse i.n., p < 0.001): normalized the altered levels of HVA; also recorded: reversed to control value the elevated levels of dopamine and its metabolite HVA
- amphetamine-increased brain serotonin level [11, 17]: decreased the augmented serotonin; also recorded: fully normalized the levels of serotonin
- amphetamine-increased brain 5-HIAA level ([11]; lunasin 0.1 and 1 nmol/mouse i.n. (both doses), p < 0.0001): decreased the augmented serotonin (p < 0.01, Figure 2d) at both doses, as well as 5-HIAA levels; also recorded: fully normalized the levels of serotonin and its metabolite 5-HIAA (both tested doses)
- amphetamine-increased brain dopamine level [11, 18]: reversed to control values; also recorded: reversed to control value the elevated levels of dopamine
- brain monoamine levels, summary [11, 13]: fully normalized hyper-locomotion and brain monoamine levels
